Measurements taken from patent US5403824A, “Methods for the treatment of osteoporosis” (The Procter & Gamble Company, priority 1993, dated 1995).

System: Rat osteoblast-like cells (ROS 17/2.8)
Assay: [3H]-thymidine incorporation, proliferation of osteoblast-like cells
Format: cell-based
Conditions: ROS 17/2.8, 18 hrs incubation, 2 hrs pulse
Description: Stimulation of osteoblast-like cell proliferation can be measured according to several art-recognized in vitro models. One such model is described in European Patent Publication No. 384,731, by Rodan et al, published Aug. 29, 1990, which is incorporated herein by reference. (Applicants have modified this method by reducing regent volumes to one-quarter those described and by utilizing Dulbecco's Modified eagle's Medium (DMEM).) In this model, proliferation (division) of, for example, rat osteoblast-like cells (rat osteosarcoma (ROS) cells, rat calvaria cells, etc.) is observed by measuring the amount of radiolabeled thymidine ([^3 H]thymidine) incorporated by these cells. ([^3 H]thymidine is "incorporated" by cellular DNA being synthesized as a result of cell proliferation.) The greater the level of [^3 H]thymidine measured, the greater the amount of proliferation of the osteoblast cells.
More specifically, a test sample (comprised of a test compound and osteoblast-like cells) and a control sample (comprised of only osteoblast-like cells) are pulsed with [^3 H]thymidine. The amount of [^3 H]thymidine incorporated by the cells is measured using a direct beta counter.
Rat osteoblast-like cells (ROS 17/2.8) are plated at 4×10^3 cells/well in a 96-well plate in Dulbecco's Modified eagle's Medium supplemented with 2% (v/v) Fetal Bovine Serum, and incubated for 6 hrs. Control (serum-free) medium and test medium (test sample and serum-free medium) are then added to the cells and this combination is incubated for 18 hrs. The cells are then pulsed with [^3 H]-thymidine (1 μCi/well) for 2 hrs. The medium is then removed, the cells are harvested onto glass fibre filters and the amount of [^3 H]-thymidine (counts per minute per well) incorporated into DNA is then determined using a direct beta counter. Values for control groups are then compared to values for treated groups.
The compound H-Tyr-D-Ala-Gly-Phe-D-Leu-OH ("DADLE") is screened to determine whether it stimulates proliferation of osteoblast-like cells. […] The medium is then removed, the cells are harvested onto glass fibre filters, and the amount of ^3 H-thymidine (counts per minute per well) incorporated into DNA is determined using a direct beta counter. […]
The compound Tyr-D-Cys(S-t-butylthioether)-Gly-Phe-Leu-Thr(O-t-butylether) ("BUBUC") is screened to determine whether it stimulates proliferation of osteoblast-like cells. […] The medium is then removed, the cells are harvested onto glass fibre filters, and the amount of ^3 H-thymidine (counts per minute per well) incorporated into DNA is determined using a direct beta counter. […]

SMILES: O=C(O)CNC(=O)C(CS)Cc1ccccc1 (racemic) [DL-3-mercapto-2-benzyl-propanoylglycine]
- [3H]-thymidine incorporation (proliferation) vs control: significantly stimulated proliferation of the osteoblast-like cells
